Experimental data taken from patent US20180207113A1, “VIVO INTRACELLULAR REPROGRAMMING COMPOSITION AND METHOD OF MAKING AND USING SAME” (priority 2017, published 2018).

Assays:
C. elegans [1] = assay: C. elegans lifespan; format: in vivo
Source text: Urolithins extend lifespan and improve fitness in C. elegans.

mitophagy = assay: Induction of mitophagy in vitro and in vivo; conditions: in vitro and in vivo following oral consumption
C. elegans [2] = assay: Activity and fitness during aging in C. elegans (mobility, pharyngeal pumping); format: in vivo
C. elegans [3] = assay: Mitochondrial function with age in C. elegans; format: in vivo

Row | Structure (SMILES) | effect on lifespan (C. elegans [1]; at the same concentration (not given)) | lifespan (C. elegans [1]) | mortality observed at advanced ages (C. elegans [1]; at 50 μM) | dose-response effect on lifespan (C. elegans [1]; concentrations increased from 10 to 50 μM) | induction of mitophagy (mitophagy) | normal activity during aging, including mobility and pharyngeal pumping (C. elegans [2]) | accumulation of dysfunctional mitochondria with age (C. elegans [3]) | mitochondrial respiratory capacity (C. elegans [3]; during aging)
1 | O=c1oc2c(O)c(O)cc3c(=O)oc4c(O)c(O)cc1c4c23 [EA] | no effect on lifespan | – | – | – | – | – | – | –
2 | O=c1oc2cc(O)ccc2c2ccc(O)cc12 [UA, urolithin A] | – | extended lifespan | significantly delayed the mortality | clear dose-response effect | induces mitophagy both in vitro and in vivo | prolonged normal activity during aging | prevented the accumulation of dysfunctional mitochondria with age | maintaining mitochondrial respiratory capacity
